Activity calls are given as the source filed them. The calls are words filed in the database; no cut-off is given here.
What was measured:
[1] = target: T1, Peroxisome proliferator-activated receptor alpha (Homo sapiens, UniProt Q07869); test: Agonist activity at human PPARalpha transfected in human MCF7 cells after 16 hrs by luciferase reporter gene assay; format: cell-based
T1 sequence (Q07869 whole entry): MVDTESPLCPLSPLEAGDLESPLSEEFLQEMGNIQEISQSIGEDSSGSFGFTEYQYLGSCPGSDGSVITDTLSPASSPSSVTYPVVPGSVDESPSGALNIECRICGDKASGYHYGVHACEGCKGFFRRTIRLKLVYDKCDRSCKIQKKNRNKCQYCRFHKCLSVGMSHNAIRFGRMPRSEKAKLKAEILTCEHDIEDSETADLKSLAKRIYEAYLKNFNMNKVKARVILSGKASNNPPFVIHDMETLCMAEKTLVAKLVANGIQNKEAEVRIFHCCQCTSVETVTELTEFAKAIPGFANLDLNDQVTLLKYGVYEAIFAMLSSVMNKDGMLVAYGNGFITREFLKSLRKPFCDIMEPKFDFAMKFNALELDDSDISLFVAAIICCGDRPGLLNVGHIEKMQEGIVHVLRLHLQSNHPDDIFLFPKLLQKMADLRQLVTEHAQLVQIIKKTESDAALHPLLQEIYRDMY

Rattus norvegicus [2] = test: Inhibition of food intake in ip dosed 24 hrs food derived obese Wistar rat after 30 to 240 mins; format: functional, organism-based
Rattus norvegicus [3] = test: Inhibition of food intake in 24 hrs food derived obese Wistar rat at 3 mg/kg, ip measured up to 120 mins relative to vehicle-treated control; format: functional
Rattus norvegicus [4] = test: Inhibition of food intake in 24 hrs food derived obese Wistar rat at 3 mg/kg, ip after 240 mins; format: functional, organism-based
[5] = target: T2, Peroxisome proliferator-activated receptor gamma (Homo sapiens, UniProt P37231); test: Agonist activity at human PPARgamma transfected in human MCF7 cells after 16 hrs by luciferase reporter gene assay; format: cell-based
T2 sequence (P37231 whole entry): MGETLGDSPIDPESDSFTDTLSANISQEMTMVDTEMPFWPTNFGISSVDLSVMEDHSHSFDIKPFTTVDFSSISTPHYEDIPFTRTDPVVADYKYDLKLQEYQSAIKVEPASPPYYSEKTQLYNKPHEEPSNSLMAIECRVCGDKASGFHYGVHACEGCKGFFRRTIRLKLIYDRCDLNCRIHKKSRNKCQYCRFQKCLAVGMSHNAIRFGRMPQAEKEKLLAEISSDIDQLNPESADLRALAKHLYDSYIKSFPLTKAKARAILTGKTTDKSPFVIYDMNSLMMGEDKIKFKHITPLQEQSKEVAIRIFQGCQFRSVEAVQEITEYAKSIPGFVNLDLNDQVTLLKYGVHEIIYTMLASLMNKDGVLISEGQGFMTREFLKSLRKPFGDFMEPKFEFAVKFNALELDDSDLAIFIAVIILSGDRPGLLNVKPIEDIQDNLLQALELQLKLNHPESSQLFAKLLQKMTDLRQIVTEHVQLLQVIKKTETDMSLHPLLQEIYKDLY

Rattus norvegicus [6] = test: Inhibition of food intake in ip dosed 24 hrs food derived obese Wistar rat after 24 hrs; format: functional, organism-based

Row | SMILES | EC50 [1] | further results
1 | C[C@@H](Cc1cccc(NC(=O)c2ccc(NC(=O)Cc3ccc(C(C)(C)C)cc3)cc2)c1)C(=O)O | 866 nM | –
2 | CCCCCC(=O)Nc1ccc(C(=O)Nc2cccc(C[C@H](C)C(=O)N3C(=O)OC[C@H]3Cc3ccccc3)c2)cc1 | 1920 nM | –
3 | CCCCCC(=O)Nc1ccc(C(=O)Nc2cccc(C[C@H](C)C(=O)O)c2)cc1 | 981 nM | –
4 | CC(C)(C)c1ccc(CNC(=O)c2ccc(NC(=O)c3cccc(CN4C(=O)OC[C@H]4Cc4ccccc4)c3)cc2)cc1 | – | inhibition (Rattus norvegicus [2]): Dose-dependent effect; inhibition in vivo at 3 mg/kg (Rattus norvegicus [3]): 50%; inhibition (Rattus norvegicus [4]): inactive
5 | O=C(NCc1ccccc1)c1ccc(NC(=O)c2cccc(CN3C(=O)OC[C@H]3Cc3ccccc3)c2)cc1 | > 100000 nM | EC50 [5]: > 100 µM
6 | O=C(NCc1ccc(C(F)(F)F)cc1)c1ccc(NC(=O)c2cccc(CN3C(=O)OC[C@H]3Cc3ccccc3)c2)cc1 | > 100000 nM | EC50 [5]: > 100 µM
7 | CCCCCNC(=O)c1ccc(NC(=O)c2cccc(CN3C(=O)OC[C@@H]3Cc3ccccc3)c2)cc1 | > 100000 nM | –
8 | O=C(Nc1ccc(C(=O)NC2CC2)cc1)c1cccc(CN2C(=O)OC[C@H]2Cc2ccccc2)c1 | 1980 nM | –
9 | O=C(NCc1ccc(C(F)(F)F)cc1)c1ccc(NC(=O)c2cccc(CN3C(=O)OC[C@@H]3Cc3ccccc3)c2)cc1 | > 100000 nM | –
10 | CCCCCCCCCCCCNC(=O)c1ccc(NC(=O)c2cccc(CN3C(=O)OC[C@H]3Cc3ccccc3)c2)cc1 | 6620 nM | EC50 [5]: > 100 µM
11 | CC(C)(C)c1ccc(CNC(=O)c2ccc(NC(=O)c3cccc(CN4C(=O)OC[C@@H]4Cc4ccccc4)c3)cc2)cc1 | 756 nM | –
12 | O=C(NCC1CCCCC1)c1ccc(NC(=O)c2cccc(CN3C(=O)OC[C@H]3Cc3ccccc3)c2)cc1 | > 100000 nM | EC50 [5]: > 100 µM
13 | C[C@@H](Cc1cccc(NC(=O)c2ccc(NC(=O)Cc3ccc(C(C)(C)C)cc3)cc2)c1)C(=O)N1C(=O)OC[C@H]1Cc1ccccc1 | 966 nM | –
14 | CCCCCNC(=O)c1ccc(NC(=O)c2cccc(CN3C(=O)OC[C@H]3Cc3ccccc3)c2)cc1 | – | inhibition (Rattus norvegicus [2]): Dose-dependent effect; inhibition (Rattus norvegicus [6]): Dose-dependent effect

From ChEMBL document CHEMBL3600312, “Novel Oxazolidinone-Based Peroxisome Proliferator Activated Receptor Agonists: Molecular Modeling, Synthesis, and Biological Evaluation” (J Med Chem, 2015)
